Reference: US20260068885A1, “HERBICIDAL COMPOSITIONS” (BAYER AKTIENGESELLSCHAFT, priority 2022, published 2026)

Experiments:
Experiment in all cases: Post-emergence herbicidal action against harmful plants (greenhouse)
Assay type in all cases: in vivo
[1] = system: Pharbitis purpurea (PHBPU)
[2] = system: Xanthium strumarium (XANST)
Setaria viridis (SETVI) = system: Setaria viridis (SETVI)
[3] = system: Abutilon theophrasti (ABUTH)
Cyperus iria (CYPIR) = system: Cyperus iria (CYPIR)
[4] = system: Erigeron bonariensis (ERIBO)
Solanum nigrum (SOLNI) = system: Solanum nigrum (SOLNI)
[5] = system: Euphorbia heterophylla (EPHHL); conditions: for Herbicidal efficacy: EPHHL 21 DAT
Method in brief: (§1)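 Plants grown from seed in sandy loam in the greenhouse were sprayed at the one-leaf stage, 2 to 3 weeks after sowing, with WP or EC formulations as aqueous suspension/emulsion at 600 to 800 l/ha water plus 0.2% wetting agent. Damage was rated visually after about 3 weeks versus untreated controls (0% = like control, 100% = dead).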

[6] = system: Xanthium strumarium (XANST); remark: listed apart in the source
[7] = system: Sorghum halepense (SORHA)
Method in brief: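 Monocot and dicot weed and crop seeds were sown in sandy loam soil in wood-fibre pots, covered with soil, and grown in a greenhouse under good conditions. At the one-leaf stage, 2 to 3 weeks after sowing, the green plant parts were sprayed with compounds formulated as WP or EC in aqueous suspension or emulsion at 600 to 800 l/ha water plus 0.2% wetting agent. Herbicidal action (%) was scored visually against untreated controls, where 100% means the plants died and 0% means they look like controls.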

Emex australis (EMEAU) = system: Emex australis (EMEAU)
Method in brief: as §1

[8] = system: Brachiaria platyphylla (BRAPP)
Method in brief: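 Weed and crop seeds were sown in sandy loam soil in wood-fibre pots, covered with soil, and grown in a greenhouse under good conditions. At the one-leaf stage, 2 to 3 weeks after sowing, plants were sprayed on green parts with WP or EC formulations as aqueous suspension or emulsion at 600 to 800 l/ha water plus 0.2% wetting agent. Herbicidal action was visually scored in percent versus untreated controls.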

[9] = system: Polygonum convolvulus (POLCO)
[10] = application rate 2 g a.i./ha, 21 DAT

Cc1nnc(NC(=O)c2ccc(C(F)(F)F)c([S@+](C)[O-])c2Cl)o1 [I-5]
Herbicidal efficacy ([1]; PHBPU 10 DAT, 0.5 g a.i./ha): 0% | Herbicidal efficacy ([1]; PHBPU 10 DAT, 2 g a.i./ha): 20% | Herbicidal efficacy ([1]; PHBPU 21 DAT, 0.5 g a.i./ha): 0% | Herbicidal efficacy ([1]; PHBPU 21 DAT, 2 g a.i./ha): 0% | Herbicidal efficacy [%] against PHBPU 21 DAT ([1]; application rate 0.5 g a.i./ha, 21 DAT): 40% | Herbicidal efficacy [%] against XANST 10 DAT ([2]; application rate 0.5 g a.i./ha): 20% | Herbicidal efficacy [%] against XANST 21 DAT ([2]; application rate 0.5 g a.i./ha, 21 DAT, table with flufenoximacil): 30% | Herbicidal efficacy [%] against XANST 10 DAT ([2]; application rate 2 g a.i./ha): 30% | Herbicidal efficacy (Setaria viridis (SETVI); SETVI 10 DAT, 0.5 g a.i./ha): 20% | Herbicidal efficacy (Setaria viridis (SETVI); SETVI 10 DAT, 2 g a.i./ha): 40% | Herbicidal efficacy (Setaria viridis (SETVI); SETVI 21 DAT, 0.5 g a.i./ha): 10% | Herbicidal efficacy (Setaria viridis (SETVI); SETVI 21 DAT, 2 g a.i./ha): 20% | Herbicidal efficacy ([3]; ABUTH 10 DAT, 0.5 g a.i./ha): 20% | Herbicidal efficacy ([3]; ABUTH 10 DAT, 2 g a.i./ha): 60% | Herbicidal efficacy ([3]; ABUTH 21 DAT, 0.5 g a.i./ha): 10% | Herbicidal efficacy ([3]; ABUTH 21 DAT, 2 g a.i./ha): 30% | Herbicidal efficacy (Cyperus iria (CYPIR); CYPIR 10 DAT, 0.5 g a.i./ha): 50% | Herbicidal efficacy (Cyperus iria (CYPIR); CYPIR 10 DAT, 2 g a.i./ha): 80% | Herbicidal efficacy (Cyperus iria (CYPIR); CYPIR 21 DAT, 0.5 g a.i./ha): 40% | Herbicidal efficacy (Cyperus iria (CYPIR); CYPIR 21 DAT, 2 g a.i./ha): 60% | Herbicidal efficacy ([4]; ERIBO 10 DAT, 0.5 g a.i./ha): 0% | Herbicidal efficacy ([4]; ERIBO 10 DAT, 2 g a.i./ha): 10% | Herbicidal efficacy ([4]; ERIBO 21 DAT, 0.5 g a.i./ha): 0% | Herbicidal efficacy ([4]; ERIBO 21 DAT, 2 g a.i./ha): 0% | Herbicidal efficacy [%] against ERIBO 21 DAT [4, 10]: 40% | Herbicidal efficacy (Solanum nigrum (SOLNI); SOLNI 10 DAT, 0.5 g a.i./ha): 20% | Herbicidal efficacy (Solanum nigrum (SOLNI); SOLNI 10 DAT, 2 g a.i./ha): 60% | Herbicidal efficacy (Solanum nigrum (SOLNI); SOLNI 21 DAT, 0.5 g a.i./ha): 0% | Herbicidal efficacy (Solanum nigrum (SOLNI); SOLNI 21 DAT, 2 g a.i./ha): 20% | Herbicidal efficacy [%] against SOLNI 10 DAT (Solanum nigrum (SOLNI); application rate 0.5 g a.i./ha): 20% | Herbicidal efficacy [%] against SOLNI 21 DAT (Solanum nigrum (SOLNI); application rate 0.5 g a.i./ha): 0% | Herbicidal efficacy [%] against SOLNI 10 DAT (Solanum nigrum (SOLNI); application rate 2 g a.i./ha): 60% | Herbicidal efficacy [%] against SOLNI 21 DAT (Solanum nigrum (SOLNI); application rate 2 g a.i./ha): 20% | Herbicidal efficacy ([5]; 0.5 g a.i./ha): 0% | Herbicidal efficacy ([5]; 2 g a.i./ha): 10% | Herbicidal efficacy [%] against EPHHL 21 DAT ([5]; application rate 0.5 g a.i./ha): 30% | Herbicidal efficacy [%] against EPHHL 21 DAT ([5]; application rate 2 g a.i./ha): 40% | Herbicidal efficacy [%] against XANST 21 DAT ([6]; application rate 0.5 g a.i./ha): 10% | Herbicidal efficacy [%] against XANST 21 DAT ([6]; application rate 2 g a.i./ha): 20% | Herbicidal efficacy [%] against SORHA 10 DAT ([7]; application rate 0.5 g a.i./ha): 0% | Herbicidal efficacy [%] against SORHA 21 DAT ([7]; application rate 0.5 g a.i./ha): 0% | Herbicidal efficacy [%] against SORHA 10 DAT ([7]; application rate 2 g a.i./ha): 20% | Herbicidal efficacy [%] against SORHA 10 DAT ([7]; application rate 2 g a.i./ha, table with flufenoximacil): 90% | Herbicidal efficacy [%] against SORHA 21 DAT ([7]; application rate 2 g a.i./ha): 10% | Herbicidal efficacy (Emex australis (EMEAU); EMEAU 10 DAT, 0.5 g a.i./ha): 20% | Herbicidal efficacy (Emex australis (EMEAU); EMEAU 10 DAT, 2 g a.i./ha): 20% | Herbicidal efficacy (Emex australis (EMEAU); EMEAU 21 DAT, 0.5 g a.i./ha): 0% | Herbicidal efficacy (Emex australis (EMEAU); EMEAU 21 DAT, 2 g a.i./ha): 10% | Herbicidal efficacy [%] against EMEAU 10 DAT (Emex australis (EMEAU); application rate 0.5 g a.i./ha, 10 DAT): 30% | Herbicidal efficacy [%] against EMEAU 21 DAT (Emex australis (EMEAU); application rate 0.5 g a.i./ha): 20% | Herbicidal efficacy [%] against EMEAU 21 DAT (Emex australis (EMEAU); application rate 2 g a.i./ha): 88% | Herbicidal efficacy ([8]; BRAPP 10 DAT, 0.5 g a.i./ha): 0% | Herbicidal efficacy ([8]; BRAPP 10 DAT, 2 g a.i./ha): 30% | Herbicidal efficacy ([8]; BRAPP 21 DAT, 0.5 g a.i./ha): 0% | Herbicidal efficacy ([8]; BRAPP 21 DAT, 2 g a.i./ha): 0% | Herbicidal efficacy ([9]; POLCO 10 DAT, 0.5 g a.i./ha): 0% | Herbicidal efficacy ([9]; POLCO 10 DAT, 2 g a.i./ha): 0% | Herbicidal efficacy ([9]; POLCO 21 DAT, 0.5 g a.i./ha): 0% | Herbicidal efficacy ([9]; POLCO 21 DAT, 2 g a.i./ha): 0% | Herbicidal efficacy [%] against POLCO 21 DAT [9, 10]: 30%
